Structures can show the parent of a compound that is named as a salt.

For data set [1], the target named is T1, human factor Xa (Homo sapiens, UniProt P00742).
T1 construct: released from the colourless chromogenic substrate by human factor Xa; purchased Roche
The experiment in a line: inhibition of factor Xa, enzyme-kinetic measurement with chromogenic substrate. In kind it is biochemical. The following applies: substrate Chromozym X 200 μMol/l, factor Xa (Roche) 0.175 U/ml, pH 8.0, 37° C., photometric at 405 nm. The text has this: For example, the compounds • A=2-(5-carbamimidoyl-2-hydroxy-phenyl)-N-[3-methyl-4-(pyrrolidin-1-yl-carbonyl)-phenyl]-acetamide-hydrochloride, • B=2-(2-benzyloxy-5-carbamimidoyl-phenyl)-N-(2-ethoxycarbonyl-ethyl)-N-[3-methyl-4-(pyrrolidin-1-yl-carbonyl)-phenyl]-acetamide-hydrochloride, • C=2-(2-hydroxy-5-carbamimidoyl-phenyl)-N-(2-ethoxycarbonyl-ethyl)-N-[3-methyl-4-(pyrrolidin-1-yl-carbonyl)-phenyl]-acetamide-hydrochloride, • D=2-(2-hydroxy-5-carbamimidoyl-phenyl)-N-(2-carboxy-ethyl)-N-[3-methyl-4-(pyrrolidin-1-yl-carbonyl)-phenyl]-acetamide-hydrochloride • E=2-(5-carbamimidoyl-2-hydroxy-phenyl)-N-[3-methyl-4-(piperidin-1-yl-carbonyl)-phenyl]-acetamide-hydrochloride and • F=2-(5-carbamimidoyl-2-hydroxy-phenyl)-N-[3-methyl-4-(2-aminosulphonyl-phenyl)-phenyl]-acetamide-hydrochloride, were investigated for their effect on the inhibition of factor Xa as follows: • Method: Enzyme-kinetic measurement with chromogenic substrate. The quantity of anpnitroaniline (pNA) released from the colourless chromogenic substrate by human factor Xa is determined photometrically at 405 nm. It is proportional to the activity of the enzyme used. The inhibition of the enzyme activity by the test substance I (in relation to the solvent control) is determined at various concentrations of test substance and from this the IC50 is calculated, as the concentration which inhibits the factor Xa used by 50%. • Material: • Tris(hydroxymethyl)-aminomethane buffer (100 mmol) of and sodium chloride (150 mMol), pH 8.0 • Factor Xa (Roche), spec. activity: 10 U/0.5 ml, final concentration: 0.175 U/ml per reaction mixture • Substrate Chromozym X (Roche), final concentration: 200 μMol/l per reaction mixture • Test substance: final concentration 100, 30, 10, 3, 1, 0.3, 0.1, 0.03, 0.01, 0.003, 0.001 μMol/l
Procedure: 10 μl of a 23.5-times concentrated starting solution of the test substance or solvent (control), 175 μl of tris(hydroxymethyl)-aminomethane buffer and 25 μl of Factor Xa working solution of 1.65 U/ml are incubated for 10 minutes at 37° C. After the addition of 25 μl of Chromozym X working solution ([…]) the sample is measured in a photometer (SpectraMax 250) at 405 nm for 150 seconds at 37° C.
• 1. Determining the maximum increase (deltaOD/minutes) over 3 measuring points. • 2. Determining the % inhibition based on the solvent control. • 3. Plotting a dosage/activity curve (% inhibition vs substance concentration). • 4. Determining the IC50 by interpolating the X value (substance concentration) of the dosage/activity curve at Y=50% inhibition.

T1 sequence (P00742 235-488 limits assumed): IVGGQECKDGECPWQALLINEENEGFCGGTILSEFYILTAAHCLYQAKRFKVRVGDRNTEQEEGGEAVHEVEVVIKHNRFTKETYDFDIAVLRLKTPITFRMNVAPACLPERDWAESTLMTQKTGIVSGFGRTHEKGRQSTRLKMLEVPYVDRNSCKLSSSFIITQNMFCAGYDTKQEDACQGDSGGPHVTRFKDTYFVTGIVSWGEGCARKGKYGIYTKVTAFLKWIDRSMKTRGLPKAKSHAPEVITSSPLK
T1 sequence (P00742 41-179 partner limits assumed): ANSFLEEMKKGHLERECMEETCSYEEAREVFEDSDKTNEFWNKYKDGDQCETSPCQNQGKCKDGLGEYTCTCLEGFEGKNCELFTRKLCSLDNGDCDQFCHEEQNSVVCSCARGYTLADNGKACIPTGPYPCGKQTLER

In general, IC50 refers to the concentration that gives 50% inhibition. Read a high IC50 as weaker potency. For the compound `CCOC(=O)CCN(C(=O)Cc1cc(C(=N)N)ccc1OCc1ccccc1)c1ccc(C(=O)N2CCCC2)c(C)c1` [B, 2-(2-benzyloxy-5-carbamimidoyl-phenyl)-N-(2-ethoxycarbonyl-ethyl)-N-[3-methyl-4-(pyrrolidin-1-yl-carbonyl)-phenyl]-acetamide-hydrochloride], in data set [1], the IC50 is 0.68 µM.

In turn, `CCOC(=O)CCN(C(=O)Cc1cc(C(=N)N)ccc1O)c1ccc(C(=O)N2CCCC2)c(C)c1` [C, 2-(2-hydroxy-5-carbamimidoyl-phenyl)-N-(2-ethoxycarbonyl-ethyl)-N-[3-methyl-4-(pyrrolidin-1-yl-carbonyl)-phenyl]-acetamide-hydrochloride] registered an IC50 in data set [1] of 0.12 µM.

In data set [1], `Cc1cc(NC(=O)Cc2cc(C(=N)N)ccc2O)ccc1-c1ccccc1S(N)(=O)=O` [F, 2-(5-carbamimidoyl-2-hydroxy-phenyl)-N-[3-methyl-4-(2-aminosulphonyl-phenyl)-phenyl]-acetamide-hydrochloride] registered an IC50 of 0.26 µM.

The compound `Cc1cc(NC(=O)Cc2cc(C(=N)N)ccc2O)ccc1C(=O)N1CCCCC1` [E, 2-(5-carbamimidoyl-2-hydroxy-phenyl)-N-[3-methyl-4-(piperidin-1-yl-carbonyl)-phenyl]-acetamide-hydrochloride] registered an IC50 in data set [1] of 0.085 µM.

Usually melting point stands for the temperature, or range, at which the solid turns liquid. `Cl.N=C(N)c1cccc(C(=O)NCc2ccc(NC(=O)c3ccccc3)cc2)c1` had a melting point of 190 to 215 °C.

As for `Cl.N=C(N)c1cccc(C(=O)NCc2ccc(NS(=O)(=O)c3ccccc3)cc2)c1`, the melting point amounted to 266 °C.

Turning to `Cc1cc(NC(=O)Cc2cc(C(=N)N)ccc2O)ccc1C(=O)N1CCCC1` [A, 2-(5-carbamimidoyl-2-hydroxy-phenyl)-N-[3-methyl-4-(pyrrolidin-1-yl-carbonyl)-phenyl]-acetamide-hydrochloride], in data set [1], the IC50 came out at 0.03 µM.

For `Cl.N=C(N)c1cccc(C(=O)NCc2ccc(Oc3ccncc3)cc2)c1`, the melting point was 115 °C (dec.).

`Cc1cc(N(CCC(=O)O)C(=O)Cc2cc(C(=N)N)ccc2O)ccc1C(=O)N1CCCC1` [D, 2-(2-hydroxy-5-carbamimidoyl-phenyl)-N-(2-carboxy-ethyl)-N-[3-methyl-4-(pyrrolidin-1-yl-carbonyl)-phenyl]-acetamide-hydrochloride] showed an IC50 in data set [1] of 0.85 µM.

These data come from US7425641B2, “Carboxylic acid amides, the preparation thereof and their use as pharmaceutical compositions” (Boehringer Ingelheim Pharma KG, priority 1999, dated 2008).
